System: 994946-033-R-J1-PDC complex spheroid viability
Experiment: Anticancer human tumor 994946-033-R-J1-PDC patient-derived melanoma cell line growth inhibition [POLQ]
Details: for IC50: curve of first compound; for viability, T/C: stronger effect = lower value
Procedure: Multicellular complex tumor spheroid response to Polymerase (POL) inhibitors (novobiocin, ART-558, RP6685) in combination with a variety of drugs and investigational agents in selected tumor cell lines
The POL inhibitors (novobiocin, ART-558, and RP6685) were evaluated both individually and in combination with standard of care and investigational anticancer small molecules within a complex spheroid model of solid tumors. . Complex spheroids include a stromal component modeled by human endothelial cells (HUVEC) and fibroblasts modeled by human mesenchymal stem cells (MSCs). The concentration ranges selected for each drug and investigational agent were based upon clinically achievable concentrations if the clinical Cmax of the agent was known.
Compounds. The drugs and investigational agents: novobiocin (NSC847541), ART-558 (NSC835418), RP-6685 (NSC848927), peposertib (NSC802822), ceralasertib (NSC780249), elimusertib (NSC800525), camonsertib (NSC841442), AZD-1390 (NSC803789), olaparib (NSC753686), talazoparib (NSC767125), rucaparib (NSC756644), sotorasib (NSC818433), MRTX-1133 (NSC836407), SN-38 (NSC673596), topotecan (NSC609699), epotoside (NSC141540), doxorubicin (NSC123127), gemcitabine (NSC613327), 5-fluorouracil (NSC19893), paclitaxel (NSC125973), vemurafenib (NSC761431), MSA-2 (NSC828583), SN-011 (NSC837082), adavosertib (NSC754352), prexasertib (NSC758257), carboplatin (NSC241240) and oxaliplatin (NSC266046), were obtained from the National Cancer Institute (NCI) Developmental Therapeutics Program Chemical Repository (21). The FDA-approved anticancer drug set is available from the Developmental Therapeutics Program at https://dtp.cancer.gov/organization/dscb/obtaining/. […] The stock solutions were prepared in dimethyl sulfoxide (DMSO, Sigma-Aldrich, St. Louis, MO, cat. D2650), except for the platinum compounds which were prepared in saline (Quality Biological, Gaithersburg, MD, cat. 114-055-101), at 800-fold the tested concentration and stored at -70 degrees C prior to their use. All drugs and investigational agents were tested over a range starting from a high concentration at or near the clinical Cmax and decreasing in half-log increments. If the clinical Cmax for an agent had not been determined, the highest concentration tested was 10 microM, except for SN-38, which was tested at a high concentration of 1 microM.
Cell Culture. All cells were maintained in an incubator at 37 degrees C and 5% CO2 with 95% humidity. The PDC lines were cultured according to standard operating procedures established by the NCI PDMR (https://pdmr.cancer.gov). Table 3 of the manuscript, lists the cell lines along with the number of the three cell types plated to form the mct-spheroids and media for tumor cell growth. After thawing, all PDC lines, except 997537-175-T-J1-PDC and 415267-285-R-J2-PDC, were cultured in Matrigel-coated flasks prepared with a working solution of 1X Ham's F-12 nutrient mix, without supplementation (Thermo Fisher Scientific, cat. 11765054), 100 U/mL penicillin-streptomycin (Thermo Fisher Scientific, cat. 15140122), and 2.5% Matrigel (Corning Inc., Corning, NY, cat. 354248) for the first three passages. The two PDC lines 997537-175-T-J1-PDC and 415267-285-R-J2-PDC were cultured on uncoated flasks. The 857933-349-R-J2-PDC line was cultured in 6C/Colon 1B media containing advanced DMEM/F-12 (Thermo Fisher Scientific, cat. 12634028), 10 mM HEPES (Thermo Fisher Scientific, cat. 15630080), 1X GlutaMAX supplement (Thermo Fisher Scientific, cat. 35050061), 0.1 mg/mL primocin (InvivoGen, San Diego, CA, cat. ant-pm-2), 10% defined fetal bovine serum, heat inactivated (HyClone Laboratories Inc., Logan, UT, cat. SH30070.03HI), 50% L-WRN conditioned media (ATCC, cat. CRL-3276), 1.25 mM N-Acetyl-L-cysteine (Sigma-Aldrich, cat. A9165), 10 mM nicotinamide (Sigma-Aldrich, cat. N0636), 1X B-27 supplement (Thermo Fisher Scientific, cat. 17504044), 1X N-2 supplement (Thermo Fisher Scientific, cat. […]

[1] = second compound 0.0316 µM, first compound 0.0316 µM
[2] = second compound 0.0316 µM, first compound 0.1 µM
[3] = second compound 0.0316 µM, first compound 0.316 µM
[4] = second compound 0.0316 µM, first compound 1 µM
[5] = second compound 0.0316 µM, first compound 3.16 µM
[6] = second compound 0.0316 µM, first compound 10 µM
[7] = second compound 0.1 µM, first compound 0.0316 µM
[8] = second compound 0.1 µM, first compound 0.1 µM
[9] = second compound 0.1 µM, first compound 0.316 µM
[10] = second compound 0.1 µM, first compound 1 µM
[11] = second compound 0.1 µM, first compound 3.16 µM
[12] = second compound 0.1 µM, first compound 10 µM
[13] = second compound 0.316 µM, first compound 0.0316 µM
[14] = second compound 0.316 µM, first compound 0.1 µM
[15] = second compound 0.316 µM, first compound 0.316 µM
[16] = second compound 0.316 µM, first compound 1 µM
[17] = second compound 0.316 µM, first compound 3.16 µM
[18] = second compound 0.316 µM, first compound 10 µM
[19] = second compound 1 µM, first compound 0.0316 µM
[20] = second compound 1 µM, first compound 0.1 µM
[21] = second compound 1 µM, first compound 0.316 µM
[22] = second compound 1 µM, first compound 1 µM
[23] = second compound 1 µM, first compound 3.16 µM
[24] = second compound 1 µM, first compound 10 µM
[25] = second compound 3.16 µM, first compound 0.0316 µM
[26] = second compound 3.16 µM, first compound 0.1 µM
[27] = second compound 3.16 µM, first compound 0.316 µM
[28] = second compound 3.16 µM, first compound 1 µM
[29] = second compound 3.16 µM, first compound 3.16 µM
[30] = second compound 3.16 µM, first compound 10 µM
[31] = second compound 10 µM, first compound 0.0316 µM
[32] = second compound 10 µM, first compound 0.1 µM
[33] = second compound 10 µM, first compound 0.316 µM
[34] = second compound 10 µM, first compound 1 µM
[35] = second compound 10 µM, first compound 3.16 µM
[36] = second compound 10 µM, first compound 10 µM
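Also: spheroids exposed to drugs for 7 days.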
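For viability, T/C in this document: 100% = DMSO vehicle treated spheroids.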

`C#Cc1c(F)ccc2cc(O)cc(-c3ncc4c(N5CC6CCC(C5)N6)nc(OCC56CCCN5CC(F)C6)nc4c3F)c12` (stereo unspecified) + COC1C(OC(N)=O)C(O)C(Oc2ccc3c(O)c(NC(=O)c4ccc(O)c(CC=C(C)C)c4)c(=O)oc3c2C)OC1(C)C was tested, and the IC50 (second compound 0.0316 µM) was 5.06 µM, the IC50 (second compound 0.1 µM) was 5.48 µM and the IC50 (second compound 0.316 µM) was 4.01 µM. For the same molecule, the IC50 (second compound 1 µM) was 5.89 µM, the IC50 (second compound 3.16 µM) was 4.14 µM and the IC50 (second compound 10 µM) was 5.33 µM. For the same molecule, the viability, T/C [1] was 116%, the viability, T/C [2] was 121% and the viability, T/C [3] was 87.2%. The viability, T/C [4] was 139%, the viability, T/C [5] was 76.4% and the viability, T/C [6] was 11.8%. For the same molecule, the viability, T/C [7] was 107%, the viability, T/C [8] was 98.7% and the viability, T/C [9] was 78.8%. The viability, T/C [10] was 110%, the viability, T/C [11] was 82.7% and the viability, T/C [12] was 14.3%. The viability, T/C [13] was 106%, the viability, T/C [14] was 99.7% and the viability, T/C [15] was 96.2%. It also gave a viability, T/C [16] of 84.7%, a viability, T/C [17] of 61% and a viability, T/C [18] of 10.2%. For the same molecule, the viability, T/C [19] was 77.9%, the viability, T/C [20] was 114% and the viability, T/C [21] was 81.7%. It also gave a viability, T/C [22] of 71.5%, a viability, T/C [23] of 82.5% and a viability, T/C [24] of 26.6%. It also gave a viability, T/C [25] of 98.2%, a viability, T/C [26] of 92.7% and a viability, T/C [27] of 105%. For the same molecule, the viability, T/C [28] was 94.7%, the viability, T/C [29] was 62.3% and the viability, T/C [30] was 9.63%. For the same molecule, the viability, T/C [31] was 94.8%, the viability, T/C [32] was 93.2% and the viability, T/C [33] was 65.9%. It also gave a viability, T/C [34] of 92%, a viability, T/C [35] of 86.3% and a viability, T/C [36] of 6.26%.
For `C=CC(=O)N1CCN(c2nc(=O)n(-c3c(C)ccnc3C(C)C)c3nc(-c4c(O)cccc4F)c(F)cc23)C(C)C1` (stereo unspecified) + COC1C(OC(N)=O)C(O)C(Oc2ccc3c(O)c(NC(=O)c4ccc(O)c(CC=C(C)C)c4)c(=O)oc3c2C)OC1(C)C, the IC50 (second compound 0.0316 µM) was > 10 µM, the IC50 (second compound 0.1 µM) was > 10 µM and the IC50 (second compound 0.316 µM) was > 10 µM. The IC50 (second compound 1 µM) was > 10 µM, the IC50 (second compound 3.16 µM) was > 10 µM and the IC50 (second compound 10 µM) was > 10 µM. The viability, T/C [1] was 80.4%, the viability, T/C [2] was 110% and the viability, T/C [3] was 104%. It also gave a viability, T/C [4] of 101%, a viability, T/C [5] of 104% and a viability, T/C [6] of 95.5%. For the same molecule, the viability, T/C [7] was 102%, the viability, T/C [8] was 105% and the viability, T/C [9] was 87.5%. For the same molecule, the viability, T/C [10] was 99.5%, the viability, T/C [11] was 90.8% and the viability, T/C [12] was 114%. It also gave a viability, T/C [13] of 92.8%, a viability, T/C [14] of 111% and a viability, T/C [15] of 119%. The viability, T/C [16] was 99%, the viability, T/C [17] was 138% and the viability, T/C [18] was 104%. The viability, T/C [19] was 112%, the viability, T/C [20] was 93.5% and the viability, T/C [21] was 118%. It also gave a viability, T/C [22] of 85.9%, a viability, T/C [23] of 112% and a viability, T/C [24] of 75.7%. The viability, T/C [25] was 94%, the viability, T/C [26] was 108% and the viability, T/C [27] was 113%. The viability, T/C [28] was 105%, the viability, T/C [29] was 93.3% and the viability, T/C [30] was 115%. For the same molecule, the viability, T/C [31] was 98.1%, the viability, T/C [32] was 81.7% and the viability, T/C [33] was 99.9%. For the same molecule, the viability, T/C [34] was 124%, the viability, T/C [35] was 86.9% and the viability, T/C [36] was 105%.
`CCc1cc2c(N3CCc4c(cc(Cn5ccnc5)cc4-c4cn(C)nc4C(F)(F)F)C3=O)cc(C)nc2c(OC)n1` + COC1C(OC(N)=O)C(O)C(Oc2ccc3c(O)c(NC(=O)c4ccc(O)c(CC=C(C)C)c4)c(=O)oc3c2C)OC1(C)C was tested, and the IC50 (second compound 0.0316 µM) was > 10 µM, the IC50 (second compound 0.1 µM) was > 10 µM and the IC50 (second compound 0.316 µM) was > 10 µM. For the same molecule, the IC50 (second compound 1 µM) was > 10 µM, the IC50 (second compound 3.16 µM) was > 10 µM and the IC50 (second compound 10 µM) was > 10 µM. For the same molecule, the viability, T/C [1] was 105%, the viability, T/C [2] was 86.1% and the viability, T/C [3] was 89.6%. For the same molecule, the viability, T/C [4] was 83%, the viability, T/C [5] was 73.4% and the viability, T/C [6] was 64%. For the same molecule, the viability, T/C [7] was 83.5%, the viability, T/C [8] was 71.5% and the viability, T/C [9] was 75.1%. The viability, T/C [10] was 86.9%, the viability, T/C [11] was 83.2% and the viability, T/C [12] was 75.1%. It also gave a viability, T/C [13] of 111%, a viability, T/C [14] of 90.2% and a viability, T/C [15] of 86.1%. It also gave a viability, T/C [16] of 51.9%, a viability, T/C [17] of 54% and a viability, T/C [18] of 70.5%. The viability, T/C [19] was 100%, the viability, T/C [20] was 71.3% and the viability, T/C [21] was 86.9%. The viability, T/C [22] was 82.2%, the viability, T/C [23] was 88.9% and the viability, T/C [24] was 91%. For the same molecule, the viability, T/C [25] was 66%, the viability, T/C [26] was 100% and the viability, T/C [27] was 80.8%. The viability, T/C [28] was 78.2%, the viability, T/C [29] was 73.1% and the viability, T/C [30] was 63.8%. For the same molecule, the viability, T/C [31] was 68.1%, the viability, T/C [32] was 93.4% and the viability, T/C [33] was 64.6%. It also gave a viability, T/C [34] of 82.2%, a viability, T/C [35] of 51.1% and a viability, T/C [36] of 69.9%.

Reference: PubChem BioAssay AID1963827 (Molecular Pharmacology Branch, DTP, NCI, 2024)
